Laboratory results taken from US20180139987A1, “PHARMACEUTICAL POWDER COMPOSITION AND ITS USE IN THE CONTROL OF POST-PRANDIAL GLYCAEMIC PROFILE” (OMNIBLEND INNOVATION PTY LTD, priority 2015, published 2018).

Columns and labels:
Healthy Participant = assay: Post-prandial glycemic profile (finger-prick blood sugar) after white rice breakfast, healthy participant; format: in vivo, human; details: HP2 healthy participant, 125 g white rice
From the text: 125 g microwaveable white rice (details, amount of available carbohydrate?) was eaten together with a cup of water. Finger-prick blood sugar readings were taken before consumption of the standard meal in the morning (i.e. the standard meal was breakfast). Two readings were taken and the average value was used as the blood sugar reading. After consumption of the meal, another blood sugar reading was taken. Further blood sugar readings were taken at 15-minute intervals thereafter. A subject (HP2, Healthy Participant) was given a standard white rice breakfast, containing 125 g cooked white rice (example A3), and was tested for post-prandial glycemic profile-this was the first control glycemic profile. […] This was the third control glycemic profile. On another day, the same subject was given the acarbose-containing pre-meal drink described in example A1 (this drink is prepared according to the invention). This was the test glycemicsrofile.

[1] = tested on: subject with type 2 diabetes; assay: Post-prandial glycemic profile (finger-prick blood sugar) after white rice breakfast, subjects with type 2 diabetes; format: in vivo, human
Method: 160 g microwaveable white rice (details, amount of available carbohydrate?) was eaten together with a cup of water.
240 g microwaveable white rice (Uncle Bens Brand Microwavable White Rice, […] of available carbohydrate) and 200 ml of hot tea.
Finger-prick blood sugar readings were taken before consumption of the standard meal in the morning (i.e. the standard meal was breakfast). Two readings were taken and the average value was used as the blood sugar reading. After consumption of the meal, another blood sugar reading was taken. Further blood sugar readings were taken at 15-minute intervals thereafter.
A subject with type 2 diabetes (T2D1, person) was given a standard white rice breakfast (Example A2) and was tested for post-prandial glycemic profile—this was the first control glycemic profile. […] This was the third control glycemic profile. […] This was the test glycemic profile. […]
A subject with type 2 diabetes (T2D5, person) was given a standard white rice breakfast (Example A2) and was tested for post-prandial glycemic profile—this was the first control glycemic profile. […] This was the third control glycemic profile. […] This was the test glycemic profile.
This was the second glycemic test profile.
This was the second test glycemic profile.
This was the first glycemic test profile.

C[C@H]1O[C@H](O[C@H]2[C@H](O)[C@@H](O)[C@@H](O[C@H]3[C@H](O)[C@@H](O)C(O)O[C@@H]3CO)O[C@@H]2CO)[C@H](O)[C@@H](O)[C@@H]1N[C@H]1C=C(CO)[C@@H](O)[C@H](O)[C@H]1O (stereo partly drawn) [acarbose]
glycemic profile (mM blood glucose) (Healthy Participant; time after eating 0 min): 6.03 mM | glycemic profile (mM blood glucose) (Healthy Participant; time after eating 15 min): 6.4 mM | glycemic profile (mM blood glucose) (Healthy Participant; time after eating 30 min): 7.04 mM | glycemic profile (mM blood glucose) (Healthy Participant; time after eating 45 min): 6.75 mM | glycemic profile (mM blood glucose) (Healthy Participant; time after eating 60 min): 5.9 mM | glycemic profile (mM blood glucose) (Healthy Participant; time after eating 75 min): 6.1 mM | glycemic profile (mM blood glucose) (Healthy Participant; time after eating 90 min): 6.175 mM | glycemic profile (mM blood glucose) (Healthy Participant; time after eating 105 min): 5.8 mM | glycemic profile (mM blood glucose) (Healthy Participant; time after eating 120 min): 6.3 mM | glycemic profile (mM blood glucose) (Healthy Participant; time after eating 135 min): 6.23 mM | glycemic profile (mM blood glucose) (Healthy Participant; time after eating −15 min): 5.65 mM | glycemic profile (mM blood glucose) ([1]; T2D1, 240 g white rice (Example B3), time after eating 30 min): 9.32 mM | glycemic profile (mM blood glucose) ([1]; T2D1, 240 g white rice (Example B3), time after eating 60 min): 10.4 mM | glycemic profile (mM blood glucose) ([1]; T2D1, 240 g white rice (Example B3), time after eating 75 min): 11.0 mM | glycemic profile (mM blood glucose) ([1]; T2D1, 240 g white rice (Example B3), time after eating 90 min): 10.8 mM | glycemic profile (mM blood glucose) ([1]; T2D1, 240 g white rice (Example B3), time after eating 105 min): 11 mM | glycemic profile (mM blood glucose) ([1]; T2D1, 240 g white rice (Example B3), time after eating 120 min): 10.4 mM | glycemic profile (mM blood glucose) ([1]; T2D1, 240 g white rice (Example B3), time after eating 135 min): 10.4 mM | glycemic profile (mM blood glucose) ([1]; T2D1, 240 g white rice (Example B3), time after eating 165 min): 9.45 mM | glycemic profile (mM blood glucose) ([1]; T2D1, 240 g white rice (Example B3), time after eating 180 min): 9.66 mM | glycemic profile (mM blood glucose) ([1]; T2D1, 240 g white rice (Example B3), time after eating −25 min): 7.3 mM | glycemic profile (mM blood glucose) ([1]; T2D1, 240 g white rice (Example B7), time after eating 30 min): 9.32 mM | glycemic profile (mM blood glucose) ([1]; T2D1, 240 g white rice (Example B7), time after eating 60 min): 10.4 mM | glycemic profile (mM blood glucose) ([1]; T2D1, 240 g white rice (Example B7), time after eating 75 min): 11.0 mM | glycemic profile (mM blood glucose) ([1]; T2D1, 240 g white rice (Example B7), time after eating 90 min): 10.8 mM | glycemic profile (mM blood glucose) ([1]; T2D1, 240 g white rice (Example B7), time after eating 105 min): 11 mM | glycemic profile (mM blood glucose) ([1]; T2D1, 240 g white rice (Example B7), time after eating 120 min): 10.4 mM | glycemic profile (mM blood glucose) ([1]; T2D1, 240 g white rice (Example B7), time after eating 135 min): 10.4 mM | glycemic profile (mM blood glucose) ([1]; T2D1, 240 g white rice (Example B7), time after eating 165 min): 9.45 mM | glycemic profile (mM blood glucose) ([1]; T2D1, 240 g white rice (Example B7), time after eating 180 min): 9.66 mM | glycemic profile (mM blood glucose) ([1]; T2D1, 240 g white rice (Example B7), time after eating −25 min): 7.3 mM | glycemic profile (mM blood glucose) ([1]; T2D1, standard white rice breakfast (Example A2, 160 g), time after eating 45 min): 9.6 mM | glycemic profile (mM blood glucose) ([1]; T2D1, standard white rice breakfast (Example A2, 160 g), time after eating 60 min): 9.8 mM | glycemic profile (mM blood glucose) ([1]; T2D1, standard white rice breakfast (Example A2, 160 g), time after eating 75 min): 9.6 mM | glycemic profile (mM blood glucose) ([1]; T2D1, standard white rice breakfast (Example A2, 160 g), time after eating 90 min): 10.9 mM | glycemic profile (mM blood glucose) ([1]; T2D1, standard white rice breakfast (Example A2, 160 g), time after eating 105 min): 9.65 mM | glycemic profile (mM blood glucose) ([1]; T2D1, standard white rice breakfast (Example A2, 160 g), time after eating 120 min): 10.25 mM | glycemic profile (mM blood glucose) ([1]; T2D1, standard white rice breakfast (Example A2, 160 g), time after eating 135 min): 9.82 mM | glycemic profile (mM blood glucose) ([1]; T2D1, standard white rice breakfast (Example A2, 160 g), time after eating 150 min): 9.26 mM | glycemic profile (mM blood glucose) ([1]; T2D5, 240 g white rice (Example B2), time after eating 0 min): 7.4 mM | glycemic profile (mM blood glucose) ([1]; T2D5, 240 g white rice (Example B2), time after eating 30 min): 10.4 mM | glycemic profile (mM blood glucose) ([1]; T2D5, 240 g white rice (Example B2), time after eating 45 min): 10.1 mM | glycemic profile (mM blood glucose) ([1]; T2D5, 240 g white rice (Example B2), time after eating 60 min): 9.7 mM | glycemic profile (mM blood glucose) ([1]; T2D5, 240 g white rice (Example B2), time after eating 75 min): 9.95 mM | glycemic profile (mM blood glucose) ([1]; T2D5, 240 g white rice (Example B2), time after eating 165 min): 7.3 mM
